In patent US20180273970A1, “PLASMID, TRANSFORMED PLANT CELL AND TRANSGENIC PLANT COMPRISING THE SAME, AND METHODS FOR PREPARING A TRANSGENIC PLANT AND FOR INCREASING YIELD OF A PLANT UNDER ABIOTIC STRESSES” (Academia Sinica, priority 2014, published 2018):

Key:
SKIN1 = experiment: Quantitative RT-PCR of SKIN1 mRNA in leaves of 2-week-old rice seedlings after stress or ABA; type: in vivo; settings: 24 h after 1 μM ABA
Procedure: FIG. 9. The expression of SKIN is induced by various abiotic stresses and ABA, and SKINs promote the ABA sensitivity. (A) Total RNA was purified from leaves of 2-week-old rice seedlings that had been air dried, treated with 200 mM salt, incubated at 4° C., or treated with 1 μM ABA, or from embryos of seedlings grown underwater (hypoxia), for various lengths of time. RNAs were subjected to quantitative RT-PCR analysis using primers specific for SKIN1 and SKIN2. The highest mRNA level was set as 100%. The lowest mRNA level was assigned a value of 1× and mRNA levels of other samples were calculated relative to this value. Error bars indicate the SE for three replicate experiments. (B) Seeds of transgenic lines SKIN1-Ox(O3), SKIN1-Ri(R3), SKIN2-Ox(02) and SKIN2-Ri(R1) were germinated and grown in water containing various concentrations of ABA at 28° C. under a 14-h light/10-h dark cycle for 6 days. Lengths of shoots were measured. Error bars represent SE (n=8) at significance levels: * p<0.1, ** p<0.05. […]
Total RNA was extracted from leaves of rice seedlings with the Trizol reagent (Invitrogen) and treated with RNase-free DNase I (Promega, Madison, Wis.). […] The quantitative variation between different samples was evaluated by the delta-delta CT method, and the amplification of 18S ribosomal RNA was used as an internal control to normalize all data.

MYBS1-GFP = experiment: Cellular localization of MYBS1-GFP in transfected barley aleurones (confocal microscopy); type: cell-based; settings: −S medium containing ABA, 48 h
Procedure: FIG. 10. ABA restricts SKINs, SnRK1A and MYBS1 in the cytoplasm under sugar starvation. Barley aleurones were co-transfected with indicated plasmid constructs and incubated in +S or −S medium with ABA (+ABA) or without ABA (−ABA) for 48 h. Thirty optical sections of 0.9-1.1 μm thickness were prepared for each cell and only five regularly spaced sections (sections 3, 9, 15, 21 and 27) are shown here. C and N indicate higher GFP signals, and c and n indicate lower GFP signals in the cytoplasm and nucleus, respectively. For more section images of each cell, see also FIG. 22 online. (A) Barley aleurones were transfected with Ubi:SKIN1-GFP, Ubi:SKIN2-GFP, Ubi:SnRK1A-GFP or Ubi:MYBS1-GFP alone. (B) Barley aleurones were transfected with Ubi.MYBS1-GFP alone (panel 1) or co-transfected with Ubi.MYBS1-GFP and Ubi:SnRK1A (panel 2), or with Ubi.MYBS1-GFP and Ubi:SnRK1A(Ri) (panel 3). (C) Barley aleurones were co-transfected with Ubi:SnRK1A-GFP and Ubi:SKIN(Ri). (D) Wild type rice (WT) or transgenic rice overexpression Ubi:SKIN(Ri) were transfected with Ubi:SnRK1A-GFP (panels 1-3) or Ubi.MYBS1-GFP (panels 4-6).
Detection of cellular localization of SKIN-GFP, SnRK1A-GFP and MYBS1-GFP fusion proteins were performed as described (Hong et al., 2012). […]

CC1=CC(=O)CC(C)(C)[C@@]1(O)/C=C/C(C)=C\C(=O)O [ABA, abscisic acid]
Induction of SKIN1 mRNA accumulation (SKIN1): ≤ 4.2 fold | Localization of MYBS1-GFP (MYBS1-GFP): exclusively localized in the cytoplasm
